Here are results for nine molecules from patent US20080031839A1, “Agent For Prermanent Hair Processing” (Showa Denko K.K., priority 2004, published 2008).

The experiment is described as follows: Permanent wave processing of hair, wave efficiency by Kilby method. The settings on record: for Wave efficiency: compound at 2% in terms of reducing power of thioglycolic acid, soaked at 35° C. for 20 minutes, bromate second liquid 25° C. 10 minutes. As to the method:
A permanent wave first liquid was prepared as described below using the alkoxyalkyl mercaptocarboxylate (TGE-1) obtained in Synthetic Example 1. A permanent wave second liquid was prepared as described below. Hair was permanent waved with these liquids, and the wave efficiency was obtained.
[…] The mixing was performed such that the total amount would be 100 g. A permanent wave first liquid was thus prepared.
The agent contained TGE-1 in an amount of 2% in terms of reducing power of thioglycolic acid.
5 g of sodium bromate and 95 g of purified water were mixed together to give a permanent wave second liquid.
The wave efficiency was evaluated by a Kilby method as described in Fragrance Journal Extra Edition (1984, No. 5, P. 442). A liquid containing cysteamine hydrochloride was used as the comparative agent.
Chinese hair (approximately 20 cm long) was fixed to a Kilby apparatus and was soaked in the permanent wave first liquid heated to 35° C. over a period of 20 minutes. Thereafter, the hair was lightly towel dried such that the first liquid would not drip. The hair was then given the bromate-based permanent wave second liquid, and was allowed to stand at 25° C. for 10 minutes. After the completion of the treatment with the second liquid, the hair was rinsed with running water and was removed from the Kilby apparatus, followed by drying. The dried hair was measured and the wave efficiency was determined from the following equation. Wave efficiency(%)=100−[100×(B−A)]÷(C−A) wherein:
A: Distance between the first and sixth rods of the Kilby apparatus (actual measurement value between the central points of the rods)
B: Length of six waves of curled hair
C: Length of straightened six waves of curled hair
A permanent wave first liquid was prepared as described in Example 1, except that TGE-1 was replaced with the alkoxyalkyl mercaptocarboxylate indicated in Table 1. The permanent wave first liquid contained the alkoxyalkyl mercaptocarboxylate in an amount of 2% in terms of reducing power of thioglycolic acid.
Hair was permanent waved and the wave efficiency was obtained by the procedure of Example 1 with use of the permanent wave first liquid prepared as above and the permanent wave second liquid used in Example 1.
A permanent wave first liquid was prepared as described in Example 1, except that TGE-1 was replaced with the cysteamine hydrochloride indicated in Table 1. The permanent wave first liquid contained the […] in an amount of 2% in terms of reducing power of thioglycolic acid.

Counter-ions that a name gives are not always drawn.

As for 2-butoxyethyl thiolactate [TNE-3], the Wave efficiency stood at 73% (pH 6 first liquid), 73% (pH 7.5 first liquid) and 72% (pH 9 first liquid).

`NCCS` [Cysteamine hydrochloride, cysteamine hydrochloride, reference compound]: the “Behaviour of wave efficiency across pH range” value (neutral to acidic versus alkaline pH, summary of Table 1) is listed as “drastic deterioration of wave efficiency with the pH lowering to a neutral to acidic region”. Moreover, the Wave efficiency by setting is: (pH 6 first liquid) 52%; (pH 7.5 first liquid) 65%; (pH 9 first liquid) 73%.

With `CCOCCOC(=O)CS` [TGE-2, 2-ethoxyethyl thioglycolate], the Wave efficiency was found to be 84% (pH 6 first liquid), 87% (pH 7.5 first liquid) and 86% (pH 9 first liquid).

On to `CCCCOCCOC(=O)CS` [TGE-3, 2-butoxyethyl thioglycolate], for which the Wave efficiency (pH 6 first liquid) worked out at 79%, the Wave efficiency (pH 7.5 first liquid) turned out to be 79% and the Wave efficiency (pH 9 first liquid) was 82%.

For `CCOCCOCCOC(=O)CS` [TGE-5, 5-ethoxy-3-oxapentyl thioglycolate], the Wave efficiency (pH 6 first liquid) is listed as 70%, the Wave efficiency (pH 7.5 first liquid) came out at 70% and the Wave efficiency (pH 9 first liquid) was determined as 71%.

Take `COCCOCCOCCOC(=O)CS` [TGE-6, 8-methoxy-3,6-dioxaoctyl thioglycolate]: the Wave efficiency is, setting by setting: (pH 6 first liquid) 63%; (pH 7.5 first liquid) 67%; (pH 9 first liquid) 65%.

In the case of `COCC(C)OC(=O)CS` (stereo not shown) [TGE-7, 2-methoxy-1-methylethyl thioglycolate], the Wave efficiency was 79% (pH 6 first liquid), 81% (pH 7.5 first liquid) and 81% (pH 9 first liquid).

For the molecule `CCOCC(C)OC(=O)CS` (stereo not shown) [TGE-8, 2-ethoxy-1-methylethyl thioglycolate], the Wave efficiency is, setting by setting: (pH 6 first liquid) 80%; (pH 7.5 first liquid) 82%; (pH 9 first liquid) 83%.

`COCCOCCOCCOC(=O)CS` [TGE-9, 8-methoxy-3,6-dioxaoctyl thioglycolate] showed a Wave efficiency (pH 6 first liquid) of 75%, a Wave efficiency (pH 7.5 first liquid) of 75% and a Wave efficiency (pH 9 first liquid) of 76%.
